Measured values from ChEMBL document CHEMBL2057064, “Activation of human RNase L by 2'- and 5'-O-methylphosphonate-modified oligoadenylates” (Bioorg Med Chem Lett, 2012).
Activity calls are given as the source filed them. No cut-off for these calls is given here.

Columns and labels:
[1] = molecular target: T1, 2-5A-dependent ribonuclease (Homo sapiens, UniProt Q05823); experiment: Activation of human RNase L expressed in Escherichia coli BL21 (DE3) cells assessed as RNA cleavage using Cy5-rC11-UU-C7-BHQ2 as substrate by FRET assay
T1 sequence (Q05823 whole entry): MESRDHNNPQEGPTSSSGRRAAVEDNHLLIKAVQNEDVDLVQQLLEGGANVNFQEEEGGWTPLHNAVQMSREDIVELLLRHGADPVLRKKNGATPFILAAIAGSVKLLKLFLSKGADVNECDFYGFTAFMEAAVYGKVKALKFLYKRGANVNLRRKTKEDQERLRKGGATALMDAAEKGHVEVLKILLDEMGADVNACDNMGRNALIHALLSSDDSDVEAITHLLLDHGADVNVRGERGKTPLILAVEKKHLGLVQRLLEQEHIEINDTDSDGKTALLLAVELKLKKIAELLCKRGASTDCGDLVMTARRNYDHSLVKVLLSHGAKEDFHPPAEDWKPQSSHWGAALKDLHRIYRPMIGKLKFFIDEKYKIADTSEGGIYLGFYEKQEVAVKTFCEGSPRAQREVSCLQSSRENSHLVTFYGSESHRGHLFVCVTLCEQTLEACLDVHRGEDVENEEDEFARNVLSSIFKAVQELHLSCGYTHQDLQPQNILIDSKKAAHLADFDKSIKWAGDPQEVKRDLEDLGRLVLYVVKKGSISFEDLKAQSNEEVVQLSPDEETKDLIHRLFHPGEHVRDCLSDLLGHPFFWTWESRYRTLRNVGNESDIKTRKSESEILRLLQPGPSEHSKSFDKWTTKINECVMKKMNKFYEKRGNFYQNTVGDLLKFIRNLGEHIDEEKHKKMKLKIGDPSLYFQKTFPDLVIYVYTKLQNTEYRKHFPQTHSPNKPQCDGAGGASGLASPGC

[2] = molecular target: T2, 2-5A-dependent ribonuclease (Homo sapiens) (UniProt Q05823); experiment: Antagonist activity at human RNase L expressed in Escherichia coli BL21 (DE3) cells assessed as RNA cleavage using Cy5-C11-rUU-C7-BHQ2 as substrate by FRET assay in presence of natural activator pAAAA; type: functional
T2 sequence (whole entry): T1 sequence (Q05823 whole entry)

Row | SMILES | EC50 [1] [nM] | inhibition [2]
1 | Nc1ncnc2c1ncn2[C@@H]1O[C@H](COP(=O)(O)O[C@@H]2[C@H](O)[C@@H](COP(=O)(O)O[C@@H]3[C@H](O)[C@@H](COP(=O)(O)CO[C@@H]4[C@H](O)[C@@H](COP(=O)(O)O)O[C@H]4n4cnc5c(N)ncnc54)O[C@H]3n3cnc4c(N)ncnc43)O[C@H]2n2cnc3c(N)ncnc32)[C@@H](O)[C@H]1O | > 1000 | –
2 | Nc1ncnc2c1ncn2[C@@H]1O[C@H](COP(=O)(O)CO[C@@H]2[C@@H](O)[C@@H](COP(=O)(O)CO[C@@H]3[C@@H](O)[C@@H](COP(=O)(O)O[C@@H]4[C@H](O)[C@@H](COP(=O)(O)O)O[C@H]4n4cnc5c(N)ncnc54)O[C@H]3n3cnc4c(N)ncnc43)O[C@H]2n2cnc3c(N)ncnc32)[C@@H](O)[C@H]1O | – | inactive
3 | Nc1ncnc2c1ncn2[C@@H]1O[C@H](COCP(=O)(O)O[C@@H]2[C@H](O)[C@@H](COP(=O)(O)O[C@H]3[C@H](O)[C@@H](COCP(=O)(O)O[C@@H]4[C@H](O)[C@@H](COP(=O)(O)O)O[C@H]4n4cnc5c(N)ncnc54)O[C@H]3n3cnc4c(N)ncnc43)O[C@H]2n2cnc3c(N)ncnc32)[C@@H](O)[C@@H]1O | – | inactive
4 | Nc1ncnc2c1ncn2[C@@H]1O[C@H](COP(=O)(O)O[C@@H]2[C@H](O)[C@@H](COP(=O)(O)O[C@@H]3[C@@H](O)[C@@H](COCP(=O)(O)O[C@@H]4[C@@H](O)[C@@H](COCP(=O)(O)O)O[C@H]4n4cnc5c(N)ncnc54)O[C@H]3n3cnc4c(N)ncnc43)O[C@H]2n2cnc3c(N)ncnc32)[C@@H](O)[C@H]1O | – | inactive
5 | Nc1ncnc2c1ncn2[C@@H]1O[C@H](COP(=O)(O)O[C@@H]2[C@H](O)[C@@H](COP(=O)(O)CO[C@H]3[C@H](O)[C@@H](COP(=O)(O)CO[C@H]4[C@H](O)[C@@H](COP(=O)(O)O)O[C@H]4n4cnc5c(N)ncnc54)O[C@H]3n3cnc4c(N)ncnc43)O[C@H]2n2cnc3c(N)ncnc32)[C@@H](O)[C@H]1O | – | inactive
6 | Nc1ncnc2c1ncn2[C@@H]1O[C@H](COP(=O)(O)O[C@@H]2[C@@H](O)[C@@H](COCP(=O)(O)O[C@@H]3[C@@H](O)[C@@H](COCP(=O)(O)O[C@@H]4[C@H](O)[C@@H](COP(=O)(O)O)O[C@H]4n4cnc5c(N)ncnc54)O[C@H]3n3cnc4c(N)ncnc43)O[C@H]2n2cnc3c(N)ncnc32)[C@@H](O)[C@H]1O | – | inactive
7 | Nc1ncnc2c1ncn2[C@@H]1O[C@H](COP(=O)(O)O[C@@H]2[C@H](O)[C@@H](COP(=O)(O)CO[C@@H]3[C@@H](O)[C@@H](COP(=O)(O)CO[C@@H]4[C@@H](O)[C@@H](COP(=O)(O)O)O[C@H]4n4cnc5c(N)ncnc54)O[C@H]3n3cnc4c(N)ncnc43)O[C@H]2n2cnc3c(N)ncnc32)[C@@H](O)[C@H]1O | – | inactive
8 | Nc1ncnc2c1ncn2[C@@H]1O[C@H](COP(=O)(O)CO[C@H]2[C@H](O)[C@@H](COP(=O)(O)O[C@@H]3[C@H](O)[C@@H](COP(=O)(O)CO[C@H]4[C@H](O)[C@@H](COP(=O)(O)O)O[C@H]4n4cnc5c(N)ncnc54)O[C@H]3n3cnc4c(N)ncnc43)O[C@H]2n2cnc3c(N)ncnc32)[C@@H](O)[C@H]1O | – | inactive
9 | Nc1ncnc2c1ncn2[C@@H]1O[C@H](COP(=O)(O)CO[C@@H]2[C@H](O)[C@@H](COP(=O)(O)CO[C@@H]3[C@H](O)[C@@H](COP(=O)(O)CO[C@@H]4[C@H](O)[C@@H](COP(=O)(O)O)O[C@H]4n4cnc5c(N)ncnc54)O[C@H]3n3cnc4c(N)ncnc43)O[C@H]2n2cnc3c(N)ncnc32)[C@@H](O)[C@H]1O | – | inactive
10 | Nc1ncnc2c1ncn2[C@@H]1O[C@H](COP(=O)(O)O[C@H]2[C@H](O)[C@@H](COCP(=O)(O)O[C@@H]3[C@H](O)[C@@H](COP(=O)(O)O[C@H]4[C@H](O)[C@@H](COCP(=O)(O)O)O[C@H]4n4cnc5c(N)ncnc54)O[C@H]3n3cnc4c(N)ncnc43)O[C@H]2n2cnc3c(N)ncnc32)[C@@H](O)[C@H]1O | – | inactive
11 | Nc1ncnc2c1ncn2[C@@H]1O[C@H](COP(=O)(O)O[C@@H]2[C@H](O)[C@@H](COP(=O)(O)O[C@H]3[C@H](O)[C@@H](COCP(=O)(O)O[C@H]4[C@H](O)[C@@H](COCP(=O)(O)O)O[C@H]4n4cnc5c(N)ncnc54)O[C@H]3n3cnc4c(N)ncnc43)O[C@H]2n2cnc3c(N)ncnc32)[C@@H](O)[C@H]1O | – | inactive
12 | Nc1ncnc2c1ncn2[C@@H]1O[C@H](COP(=O)(O)O[C@@H]2[C@H](O)[C@@H](COP(=O)(O)O[C@@H]3[C@H](O)[C@@H](COCP(=O)(O)O[C@@H]4[C@H](O)[C@@H](COCP(=O)(O)O)O[C@H]4n4cnc5c(N)ncnc54)O[C@H]3n3cnc4c(N)ncnc43)O[C@H]2n2cnc3c(N)ncnc32)[C@@H](O)[C@H]1O | – | inactive

The next lines start with the values.

Row | EC50 [1] [nM] | inhibition [2] | SMILES
13 | – | inactive | Nc1ncnc2c1ncn2[C@@H]1O[C@H](COP(=O)(O)O[C@H]2[C@H](O)[C@@H](COCP(=O)(O)O[C@H]3[C@H](O)[C@@H](COCP(=O)(O)O[C@H]4[C@H](O)[C@@H](COCP(=O)(O)O)O[C@H]4n4cnc5c(N)ncnc54)O[C@H]3n3cnc4c(N)ncnc43)O[C@H]2n2cnc3c(N)ncnc32)[C@@H](O)[C@H]1O
14 | – | inactive | Nc1ncnc2c1ncn2[C@@H]1O[C@H](COCP(=O)(O)O[C@@H]2[C@H](O)[C@@H](COP(=O)(O)O[C@H]3[C@H](O)[C@@H](COCP(=O)(O)O[C@H]4[C@H](O)[C@@H](COCP(=O)(O)O)O[C@H]4n4cnc5c(N)ncnc54)O[C@H]3n3cnc4c(N)ncnc43)O[C@H]2n2cnc3c(N)ncnc32)[C@@H](O)[C@@H]1O
15 | – | inactive | Nc1ncnc2c1ncn2[C@@H]1O[C@H](COCP(=O)(O)O[C@H]2[C@H](O)[C@@H](COCP(=O)(O)O[C@@H]3[C@H](O)[C@@H](COP(=O)(O)O[C@H]4[C@H](O)[C@@H](COCP(=O)(O)O)O[C@H]4n4cnc5c(N)ncnc54)O[C@H]3n3cnc4c(N)ncnc43)O[C@H]2n2cnc3c(N)ncnc32)[C@@H](O)[C@@H]1O
16 | – | inactive | Nc1ncnc2c1ncn2[C@@H]1O[C@H](COCP(=O)(O)O[C@@H]2[C@H](O)[C@@H](COCP(=O)(O)O[C@@H]3[C@H](O)[C@@H](COCP(=O)(O)O[C@@H]4[C@H](O)[C@@H](COP(=O)(O)O)O[C@H]4n4cnc5c(N)ncnc54)O[C@H]3n3cnc4c(N)ncnc43)O[C@H]2n2cnc3c(N)ncnc32)[C@@H](O)[C@H]1O
17 | – | inactive | Nc1ncnc2c1ncn2[C@@H]1O[C@H](COCP(=O)(O)O[C@H]2[C@H](O)[C@@H](COCP(=O)(O)O[C@H]3[C@H](O)[C@@H](COCP(=O)(O)O[C@@H]4[C@H](O)[C@@H](COP(=O)(O)O)O[C@H]4n4cnc5c(N)ncnc54)O[C@H]3n3cnc4c(N)ncnc43)O[C@H]2n2cnc3c(N)ncnc32)[C@@H](O)[C@@H]1O
18 | – | inactive | Nc1ncnc2c1ncn2[C@@H]1O[C@H](COP(=O)(O)O[C@@H]2[C@H](O)[C@@H](COCP(=O)(O)O[C@@H]3[C@H](O)[C@@H](COCP(=O)(O)O[C@@H]4[C@H](O)[C@@H](COCP(=O)(O)O)O[C@H]4n4cnc5c(N)ncnc54)O[C@H]3n3cnc4c(N)ncnc43)O[C@H]2n2cnc3c(N)ncnc32)[C@@H](O)[C@H]1O
19 | – | inactive | Nc1ncnc2c1ncn2[C@@H]1O[C@H](COCP(=O)(O)O[C@@H]2[C@H](O)[C@@H](COCP(=O)(O)O[C@@H]3[C@H](O)[C@@H](COP(=O)(O)O[C@@H]4[C@H](O)[C@@H](COCP(=O)(O)O)O[C@H]4n4cnc5c(N)ncnc54)O[C@H]3n3cnc4c(N)ncnc43)O[C@H]2n2cnc3c(N)ncnc32)[C@@H](O)[C@H]1O
20 | – | inactive | Nc1ncnc2c1ncn2[C@@H]1O[C@H](COCP(=O)(O)O[C@@H]2[C@H](O)[C@@H](COP(=O)(O)O[C@@H]3[C@H](O)[C@@H](COCP(=O)(O)O[C@@H]4[C@H](O)[C@@H](COP(=O)(O)O)O[C@H]4n4cnc5c(N)ncnc54)O[C@H]3n3cnc4c(N)ncnc43)O[C@H]2n2cnc3c(N)ncnc32)[C@@H](O)[C@H]1O
21 | – | inactive | Nc1ncnc2c1ncn2[C@@H]1O[C@H](COCP(=O)(O)O[C@@H]2[C@H](O)[C@@H](COCP(=O)(O)O[C@@H]3[C@H](O)[C@@H](COP(=O)(O)O[C@@H]4[C@H](O)[C@@H](COP(=O)(O)O)O[C@H]4n4cnc5c(N)ncnc54)O[C@H]3n3cnc4c(N)ncnc43)O[C@H]2n2cnc3c(N)ncnc32)[C@@H](O)[C@H]1O
22 | – | inactive | Nc1ncnc2c1ncn2[C@@H]1O[C@H](COCP(=O)(O)O[C@H]2[C@H](O)[C@@H](COCP(=O)(O)O[C@H]3[C@H](O)[C@@H](COCP(=O)(O)O[C@H]4[C@H](O)[C@@H](COCP(=O)(O)O)O[C@H]4n4cnc5c(N)ncnc54)O[C@H]3n3cnc4c(N)ncnc43)O[C@H]2n2cnc3c(N)ncnc32)[C@@H](O)[C@@H]1O
23 | – | inactive | Nc1ncnc2c1ncn2[C@@H]1O[C@H](COCP(=O)(O)O[C@@H]2[C@H](O)[C@@H](COP(=O)(O)O[C@@H]3[C@H](O)[C@@H](COCP(=O)(O)O[C@@H]4[C@H](O)[C@@H](COCP(=O)(O)O)O[C@H]4n4cnc5c(N)ncnc54)O[C@H]3n3cnc4c(N)ncnc43)O[C@H]2n2cnc3c(N)ncnc32)[C@@H](O)[C@H]1O
